# Test results as given in article PMC11227574, “Synthesis, biological evaluation, molecular docking, and MD simulation of novel 2,4-disubstituted quinazoline derivatives as selective butyrylcholinesterase inhibitors and antioxidant agents” (Scientific Reports, 2024).
# Target: eqBuChE (Equus caballus, UniProt P81908)
# Assay: Kinetic study of eqBuChE inhibition (Lineweaver-Burk plot)
# Assay type: biochemical, equine
# Settings: inhibitor 0.5, 1, 5, 10, and 20 µM
# Method: (§1) Kinetic study was performed to investigate the inhibition mechanism of eelAChE and eqBuChE using graphical analysis of the reciprocal Lineweaver–Burk plot. […] The kinetic studies were performed in the absence (control) and presence of different concentrations of compound 6h (5, 10, 20, 40, and 80 μM) for eelAChE and different concentrations of compound 6f (0.5, 1, 5, 10, and 20 μM) for eqBuChE. The control wells contained no concentration of 6h and 6f as inhibitors.
# (§2) The initial velocity (V) of the substrates hydrolysis was measured at different concentrations of acetylthiocholine iodide (ATCI) or butyrylthiocholine iodide (BTCI) (1.7–20 mM), in the absence (control) and presence of different concentrations of the compound 6h (5, 10, 20, 40, and 80 μM) for AChE and different concentrations of compound 6f (0.5, 1, 5, 10, and 20 μM) for BuChE. Then, the double reciprocal plot of 1/V versus 1/S was drawn to determine the inhibition type of AChE and BuChE. Data analysis was performed using Microsoft Office Excel 2016.
# eqBuChE, sequence (P81908 whole entry): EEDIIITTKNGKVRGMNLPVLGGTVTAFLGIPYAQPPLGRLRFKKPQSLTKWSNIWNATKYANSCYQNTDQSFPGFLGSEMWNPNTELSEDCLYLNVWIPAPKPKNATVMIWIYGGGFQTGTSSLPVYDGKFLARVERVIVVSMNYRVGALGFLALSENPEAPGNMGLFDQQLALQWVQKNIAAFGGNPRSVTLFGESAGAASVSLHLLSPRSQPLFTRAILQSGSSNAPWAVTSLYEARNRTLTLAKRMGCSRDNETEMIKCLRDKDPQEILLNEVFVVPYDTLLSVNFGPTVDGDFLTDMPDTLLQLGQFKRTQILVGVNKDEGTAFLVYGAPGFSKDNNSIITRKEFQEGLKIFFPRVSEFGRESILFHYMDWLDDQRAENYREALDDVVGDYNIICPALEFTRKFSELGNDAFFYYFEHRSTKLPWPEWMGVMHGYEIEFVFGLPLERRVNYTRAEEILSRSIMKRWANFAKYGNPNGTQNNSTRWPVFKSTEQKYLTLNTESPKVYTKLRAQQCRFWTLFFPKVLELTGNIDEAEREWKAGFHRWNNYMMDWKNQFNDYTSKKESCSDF
row,Compound,Inhibition type of eqBuChE
1,"Cc1ccc(Nc2nc(Nc3ccc(C)cc3)c3ccccc3n2)cc1 [Compound 6f, N^2, N^4-di-p-tolylquinazoline-2,4-diamine]",mixed-type inhibition

# Target: T1, eelAChE (Electrophorus electricus, UniProt O42275)
# T1 construct: purchased Sigma Aldrich
# T1 sequence (O42275 24-633): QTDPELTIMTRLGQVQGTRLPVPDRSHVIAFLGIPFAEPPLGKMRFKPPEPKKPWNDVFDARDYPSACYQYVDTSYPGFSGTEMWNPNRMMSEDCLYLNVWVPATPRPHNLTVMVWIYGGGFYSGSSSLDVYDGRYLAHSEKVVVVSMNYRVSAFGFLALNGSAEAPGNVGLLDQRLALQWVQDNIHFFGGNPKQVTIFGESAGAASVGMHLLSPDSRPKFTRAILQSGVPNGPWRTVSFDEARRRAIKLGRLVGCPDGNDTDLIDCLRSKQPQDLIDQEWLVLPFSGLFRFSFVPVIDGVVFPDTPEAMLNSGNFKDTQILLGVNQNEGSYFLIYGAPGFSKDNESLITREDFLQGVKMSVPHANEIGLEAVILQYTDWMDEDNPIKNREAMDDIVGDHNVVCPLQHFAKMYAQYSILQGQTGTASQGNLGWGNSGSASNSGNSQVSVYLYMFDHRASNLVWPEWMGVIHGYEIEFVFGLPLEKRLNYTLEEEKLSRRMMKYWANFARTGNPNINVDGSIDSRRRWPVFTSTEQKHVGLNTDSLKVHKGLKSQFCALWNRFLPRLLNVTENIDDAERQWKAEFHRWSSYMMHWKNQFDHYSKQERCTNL
# Assay: Kinetic study of eelAChE inhibition (Lineweaver-Burk plot)
# Assay type: biochemical, electric eel
# Settings: inhibitor 5, 10, 20, 40, and 80 µM
# Method: as §1, §2
row,Compound,Inhibition type of eelAChE
1,"COc1ccc(Nc2nc(Nc3ccc(OC)cc3OC)c3ccccc3n2)c(OC)c1 [Compound 6h, N^2, N^4-bis(2,4-dimethoxyphenyl)quinazoline-2,4-diamine]",mixed-type inhibition

# Target: eqBuChE (butyrylcholinesterase from equine serum) (Equus caballus, UniProt P81908)
# Sequence (P81908 whole entry): as the sequence (P81908 whole entry) above
# Assay: biochemical
# Assay type: biochemical
# Settings: not given
row,Compound,"eqBuChE inhibitory activity, times more active than donepezil [times]"
1,"Cc1ccc(Nc2nc(Nc3ccc(C)cc3)c3ccccc3n2)cc1 [Compound 6f, N^2, N^4-di-p-tolylquinazoline-2,4-diamine]",20

# Same assay, conditions: IC50 for AChE/ IC50 for BuChE
row,Compound,Selectivity index to BuChE (SI)
1,"COc1ccc(Nc2nc(Nc3ccc(OC)cc3OC)c3ccccc3n2)c(OC)c1 [Compound 6h, N^2, N^4-bis(2,4-dimethoxyphenyl)quinazoline-2,4-diamine]",7.1
2,"Cc1ccc(Nc2nc(Nc3ccc(C)cc3)c3ccccc3n2)cc1 [Compound 6f, N^2, N^4-di-p-tolylquinazoline-2,4-diamine]",> 96
3,"Cc1ccc(O)c(Nc2nc(Nc3cc(C)ccc3O)c3ccccc3n2)c1 [Compound 6j, 2'-(quinazoline-2,4-diylbis(azanediyl))bis(4-methylphenol)]",> 13.6

# Same assay, conditions: mean ± SD of three independent experiments
row,Compound,IC50 [µM]
1,"Oc1ccccc1Nc1nc(Nc2ccccc2O)c2ccccc2n1 [Compound 6b, 2,2′-(quinazoline-2,4-diylbis(azanediyl))diphenol]",37.2
2,"FC(F)(F)c1cccc(Nc2nc(Nc3cccc(C(F)(F)F)c3)c3ccccc3n2)c1 [Compound 6e, N^2, N^4-bis(3-(trifluoromethyl)phenyl)quinazoline-2,4-diamine]",43.5
3,"COc1ccc(Nc2nc(Nc3ccc(OC)cc3OC)c3ccccc3n2)c(OC)c1 [Compound 6h, N^2, N^4-bis(2,4-dimethoxyphenyl)quinazoline-2,4-diamine]",6.74
4,"Brc1ccccc1Nc1nc(Nc2ccccc2Br)c2ccccc2n1 [Compound 6a, N^2, N^4-bis(2-bromophenyl) quinazoline-2,4-diamine]",> 50
5,"Cc1ccc(Nc2nc(Nc3ccc(C)cc3)c3ccccc3n2)cc1 [Compound 6f, N^2, N^4-di-p-tolylquinazoline-2,4-diamine]",0.52
6,"Nc1ccccc1Nc1nc(Nc2ccccc2N)c2ccccc2n1 [Compound 6c, N^1, N^1′-(quinazoline-2,4-diyl)bis(benzene-1,2-diamine)]",26.9
7,"Cc1ccc(O)c(Nc2nc(Nc3cc(C)ccc3O)c3ccccc3n2)c1 [Compound 6j, 2'-(quinazoline-2,4-diylbis(azanediyl))bis(4-methylphenol)]",3.65
8,"COc1ccc(Cl)cc1Nc1nc(Nc2cc(Cl)ccc2OC)c2ccccc2n1 [Compound 6i, N^2, N^4-bis(5-chloro-2-methoxyphenyl)quinazoline-2,4-diamine]",> 50
9,"Brc1cccc(Nc2nc(Nc3cccc(Br)c3)c3ccccc3n2)c1 [Compound 6d, N^2,N^4-bis(3-bromophenyl)quinazoline-2,4-diamine]",41.7
10,"COc1ccc(Nc2nc(Nc3ccc(OC)cc3)c3ccccc3n2)cc1 [Compound 6g, N^2, N^4-bis(4-methoxyphenyl)quinazoline-2,4-diamine]",48.3

# Same assay, conditions: read-out: eqBuChE: % inhibition
row,Compound,inhibition at 50 µM [%]
1,"Oc1ccccc1Nc1nc(Nc2ccccc2O)c2ccccc2n1 [Compound 6b, 2,2′-(quinazoline-2,4-diylbis(azanediyl))diphenol]",52.3 ± 2.17
2,"FC(F)(F)c1cccc(Nc2nc(Nc3cccc(C(F)(F)F)c3)c3ccccc3n2)c1 [Compound 6e, N^2, N^4-bis(3-(trifluoromethyl)phenyl)quinazoline-2,4-diamine]",58.8 ± 1.37
3,"COc1ccc(Nc2nc(Nc3ccc(OC)cc3OC)c3ccccc3n2)c(OC)c1 [Compound 6h, N^2, N^4-bis(2,4-dimethoxyphenyl)quinazoline-2,4-diamine]",87.5 ± 3.08
4,"Brc1ccccc1Nc1nc(Nc2ccccc2Br)c2ccccc2n1 [Compound 6a, N^2, N^4-bis(2-bromophenyl) quinazoline-2,4-diamine]",30.6 ± 2.15
5,"Cc1ccc(Nc2nc(Nc3ccc(C)cc3)c3ccccc3n2)cc1 [Compound 6f, N^2, N^4-di-p-tolylquinazoline-2,4-diamine]",96.7 ± 2.57
6,"Nc1ccccc1Nc1nc(Nc2ccccc2N)c2ccccc2n1 [Compound 6c, N^1, N^1′-(quinazoline-2,4-diyl)bis(benzene-1,2-diamine)]",64.1 ± 2.32
7,"Cc1ccc(O)c(Nc2nc(Nc3cc(C)ccc3O)c3ccccc3n2)c1 [Compound 6j, 2'-(quinazoline-2,4-diylbis(azanediyl))bis(4-methylphenol)]",91.6 ± 3.26
8,"COc1ccc(Cl)cc1Nc1nc(Nc2cc(Cl)ccc2OC)c2ccccc2n1 [Compound 6i, N^2, N^4-bis(5-chloro-2-methoxyphenyl)quinazoline-2,4-diamine]",26.6 ± 3.19
9,"Brc1cccc(Nc2nc(Nc3cccc(Br)c3)c3ccccc3n2)c1 [Compound 6d, N^2,N^4-bis(3-bromophenyl)quinazoline-2,4-diamine]",56.1 ± 4.17
10,"COc1ccc(Nc2nc(Nc3ccc(OC)cc3)c3ccccc3n2)cc1 [Compound 6g, N^2, N^4-bis(4-methoxyphenyl)quinazoline-2,4-diamine]",51.5 ± 3.25

# Tested on: not listed separately
# Assay: DPPH antioxidant assay
# Settings: DPPH 110 µM, 30 min incubation, 517 nm; read-out: DPPH scavenging EC50
# Text: The DPPH method presents several advantages, such as low cost, ease of performing experiments, high reproducibility, applicability at room temperature, and automation possibilities. In contrast to other traditional antioxidant assays that require additional treatments of sample and reagents, such as high temperatures and/or oxygen supply, the DPPH method requires mild experimental conditions[35],[36]. These features have established it as a convenient and effective option for researchers in the evaluation of antioxidant properties. In this study, the antioxidant activities of the synthesized compounds 6a-j were assessed using the DPPH assay, and the obtained results are represented as EC50 values in Table 2. In this assay, quercetin was used as positive control to compare the antioxidant capacity of the tested compounds.
# The antioxidant activity of the synthesized compounds were determined based on the DPPH method. 2,2-Diphenyl-1-picrylhydrazyl (DPPH) and quercetin were obtained from Sigma Aldrich company. In this assay, quercetin was used as the control compound. Initially, stock solutions of the tested compounds with concentration of 40 mM were prepared in dimethyl sulfoxide (DMSO) solvent, and then the necessary dilutions were made in methanol to prepare the required concentrations ranging from 25 to 400 µM. This test was conducted in 96-well plates. Each well contained 180 μL of DPPH (110 μM) and 20 μL of different concentrations of the tested compounds, which were incubated for 30 min under dark condition. Then, the absorbance changes were measured at a wavelength of 517 nm using the Synergy HTX Multi-Mode Reader-BioTek. EC50 values for the compounds whose free radical trapping percentage was more than 50% at a concentration of 400 µM were obtained using CurveExpert software. Experiments were repeated three times for each concentration and the results were reported as the mean (m) ± standard deviation (SD).
row,Compound,EC50 [µM]
1,"Oc1ccccc1Nc1nc(Nc2ccccc2O)c2ccccc2n1 [Compound 6b, 2,2′-(quinazoline-2,4-diylbis(azanediyl))diphenol]",26.1
2,"FC(F)(F)c1cccc(Nc2nc(Nc3cccc(C(F)(F)F)c3)c3ccccc3n2)c1 [Compound 6e, N^2, N^4-bis(3-(trifluoromethyl)phenyl)quinazoline-2,4-diamine]",> 400
3,"O=c1c(O)c(-c2ccc(O)c(O)c2)oc2cc(O)cc(O)c12 [Quercetin, quercetin, reference compound]",8.9
4,"COc1ccc(Nc2nc(Nc3ccc(OC)cc3OC)c3ccccc3n2)c(OC)c1 [Compound 6h, N^2, N^4-bis(2,4-dimethoxyphenyl)quinazoline-2,4-diamine]",> 400
5,"Brc1ccccc1Nc1nc(Nc2ccccc2Br)c2ccccc2n1 [Compound 6a, N^2, N^4-bis(2-bromophenyl) quinazoline-2,4-diamine]",> 400
6,"Cc1ccc(Nc2nc(Nc3ccc(C)cc3)c3ccccc3n2)cc1 [Compound 6f, N^2, N^4-di-p-tolylquinazoline-2,4-diamine]",> 400
7,"Nc1ccccc1Nc1nc(Nc2ccccc2N)c2ccccc2n1 [Compound 6c, N^1, N^1′-(quinazoline-2,4-diyl)bis(benzene-1,2-diamine)]",28.4
8,"Cc1ccc(O)c(Nc2nc(Nc3cc(C)ccc3O)c3ccccc3n2)c1 [Compound 6j, 2'-(quinazoline-2,4-diylbis(azanediyl))bis(4-methylphenol)]",23.2
9,"COc1ccc(Cl)cc1Nc1nc(Nc2cc(Cl)ccc2OC)c2ccccc2n1 [Compound 6i, N^2, N^4-bis(5-chloro-2-methoxyphenyl)quinazoline-2,4-diamine]",> 400
10,"Brc1cccc(Nc2nc(Nc3cccc(Br)c3)c3ccccc3n2)c1 [Compound 6d, N^2,N^4-bis(3-bromophenyl)quinazoline-2,4-diamine]",> 400
11,"COc1ccc(Nc2nc(Nc3ccc(OC)cc3)c3ccccc3n2)cc1 [Compound 6g, N^2, N^4-bis(4-methoxyphenyl)quinazoline-2,4-diamine]",> 400

# Target: T2, eelAChE (acetylcholinesterase from the electric eel) (Electrophorus electricus, UniProt O42275)
# T2 construct: purchased Sigma Aldrich
# T2 sequence (O42275 24-633): as the sequence (O42275 24-633) above
# Assay: biochemical
# Settings: mean ± SD of three independent experiments
row,Compound,IC50 [µM]
1,"Oc1ccccc1Nc1nc(Nc2ccccc2O)c2ccccc2n1 [Compound 6b, 2,2′-(quinazoline-2,4-diylbis(azanediyl))diphenol]",> 50
2,"FC(F)(F)c1cccc(Nc2nc(Nc3cccc(C(F)(F)F)c3)c3ccccc3n2)c1 [Compound 6e, N^2, N^4-bis(3-(trifluoromethyl)phenyl)quinazoline-2,4-diamine]",> 50
3,"COc1ccc(Nc2nc(Nc3ccc(OC)cc3OC)c3ccccc3n2)c(OC)c1 [Compound 6h, N^2, N^4-bis(2,4-dimethoxyphenyl)quinazoline-2,4-diamine]",47.6
4,"Brc1ccccc1Nc1nc(Nc2ccccc2Br)c2ccccc2n1 [Compound 6a, N^2, N^4-bis(2-bromophenyl) quinazoline-2,4-diamine]",> 50
5,"Cc1ccc(Nc2nc(Nc3ccc(C)cc3)c3ccccc3n2)cc1 [Compound 6f, N^2, N^4-di-p-tolylquinazoline-2,4-diamine]",> 50
6,"Nc1ccccc1Nc1nc(Nc2ccccc2N)c2ccccc2n1 [Compound 6c, N^1, N^1′-(quinazoline-2,4-diyl)bis(benzene-1,2-diamine)]",> 50
7,"Cc1ccc(O)c(Nc2nc(Nc3cc(C)ccc3O)c3ccccc3n2)c1 [Compound 6j, 2'-(quinazoline-2,4-diylbis(azanediyl))bis(4-methylphenol)]",> 50
8,"COc1ccc(Cl)cc1Nc1nc(Nc2cc(Cl)ccc2OC)c2ccccc2n1 [Compound 6i, N^2, N^4-bis(5-chloro-2-methoxyphenyl)quinazoline-2,4-diamine]",> 50
9,"Brc1cccc(Nc2nc(Nc3cccc(Br)c3)c3ccccc3n2)c1 [Compound 6d, N^2,N^4-bis(3-bromophenyl)quinazoline-2,4-diamine]",> 50
10,"COc1ccc(Nc2nc(Nc3ccc(OC)cc3)c3ccccc3n2)cc1 [Compound 6g, N^2, N^4-bis(4-methoxyphenyl)quinazoline-2,4-diamine]",> 50

# Same assay, conditions: read-out: eelAChE: % inhibition
row,Compound,inhibition at 50 µM [%]
1,"Oc1ccccc1Nc1nc(Nc2ccccc2O)c2ccccc2n1 [Compound 6b, 2,2′-(quinazoline-2,4-diylbis(azanediyl))diphenol]",8.7 ± 1.15
2,"FC(F)(F)c1cccc(Nc2nc(Nc3cccc(C(F)(F)F)c3)c3ccccc3n2)c1 [Compound 6e, N^2, N^4-bis(3-(trifluoromethyl)phenyl)quinazoline-2,4-diamine]",16.5 ± 3.05
3,"COc1ccc(Nc2nc(Nc3ccc(OC)cc3OC)c3ccccc3n2)c(OC)c1 [Compound 6h, N^2, N^4-bis(2,4-dimethoxyphenyl)quinazoline-2,4-diamine]",52.4 ± 2.33
4,"Brc1ccccc1Nc1nc(Nc2ccccc2Br)c2ccccc2n1 [Compound 6a, N^2, N^4-bis(2-bromophenyl) quinazoline-2,4-diamine]",12.4 ± 2.74
5,"Cc1ccc(Nc2nc(Nc3ccc(C)cc3)c3ccccc3n2)cc1 [Compound 6f, N^2, N^4-di-p-tolylquinazoline-2,4-diamine]",40.3 ± 3.55
6,"Nc1ccccc1Nc1nc(Nc2ccccc2N)c2ccccc2n1 [Compound 6c, N^1, N^1′-(quinazoline-2,4-diyl)bis(benzene-1,2-diamine)]",6.15 ± 3.15
7,"Cc1ccc(O)c(Nc2nc(Nc3cc(C)ccc3O)c3ccccc3n2)c1 [Compound 6j, 2'-(quinazoline-2,4-diylbis(azanediyl))bis(4-methylphenol)]",45.2 ± 2.91
8,"COc1ccc(Cl)cc1Nc1nc(Nc2cc(Cl)ccc2OC)c2ccccc2n1 [Compound 6i, N^2, N^4-bis(5-chloro-2-methoxyphenyl)quinazoline-2,4-diamine]",13.7 ± 1.94
9,"Brc1cccc(Nc2nc(Nc3cccc(Br)c3)c3ccccc3n2)c1 [Compound 6d, N^2,N^4-bis(3-bromophenyl)quinazoline-2,4-diamine]",23.5 ± 1.03
10,"COc1ccc(Nc2nc(Nc3ccc(OC)cc3)c3ccccc3n2)cc1 [Compound 6g, N^2, N^4-bis(4-methoxyphenyl)quinazoline-2,4-diamine]",11 ± 4.64
